Experimental data published in patent US7982057B2, “Compound of stemphones and production thereof” (The Kitasato Institute, priority 2006, dated 2011).
Values after ≈ are worked out from the molar mass of the structure shown.

Experiments:
[1] = system: methicillin resistant Staphylococcus aureus K24; test: Enhancing effect for activity of imipenem by paper disk method; format: cell-based; details: 10 μg disc, 37° C. for 20 hours; for inhibitory zone in the presence of imipenem: MHA medium with imipenem final concentration 10 μg/ml; for inhibitory zone, substance alone: MHA medium without imipenem
Method: Biological properties of compound of stemphones of the present invention are described in detail as follows. Method for evaluation of enhancing effect for activity of imipenem by paper disk method
Clinically isolated strain of methicillin resistant Staphylococcus aureus K24 was used as a test organism. Staphylococcus aureus was cultured in Mueller-Hinton broth (2.1% w/v) (DIFCO) at 37° C. for 20 hours, and was suspended corresponding to 0.5 Mc FARLAND (about 10^8 CFU/ml) in the same medium.
Smearing was performed by using sterilized cotton swab (Kawamoto Sangyo K.K., Japan) according to a method of National Committee for Laboratory Standard, NCCLS, U.S.A. Antibacterial activities against test organism on various media were expressed with a unit in mm of a diameter of inhibition zone after incubation with the paper disc (thin disc, […], ADVANTEC Inc.) method at 37° C. for 20 hours.

Jurkat cells = test: Cytotoxicity on Jurkat cells by MTT method; format: cell-based; details: Homo sapiens, 48 hours
Method: Method for Evaluation of Cytotoxicity
Evaluation of cytotoxicity on Jurkat cells were performed by MTT method (Mosmaan, et al. J. Immunol. Methods, 65: 55-63, 1983). Cultured liquid of Jurkat cells were suspended in RPMI-1640 medium (Iwaki & Co., Ltd., Japan) to give suspension with 4×10^5 cells/ml, and the suspension 0.05 ml was seeded in each well of 96 well microplate (Corning Corp.). Subsequently, stemphone D substance, stemphone E substance, stemphone E1 substance, stemphone E2 substance, stemphone E3 substance or stemphone F substance (0.05 ml, 2% methanol/PRMI-1640 medium) was added and incubated at 37° C. for 48 hours in 5% carbon dioxide gas incubator. Then MTT reagent (SIGMA Inc.) dissolved in PBS to give concentration 5.5 mg/ml, 0.01 ml was added and reacted at 37° C. for 4 hours. After the reaction was performed, cell-lysing solution (40%, N-dimethylformamide (Kanto Chemical Co., Inc., Japan), 20% sodiumdodecyl sulfate (Wako Pure Chemical Industries, Ltd., Japan) 2% acetic acid (Kanto Chemical Co., Inc., Japan), 0.03% hydrochloric acid (Kanto Chemical Co., Inc., Japan) in purified water) 0.09 ml was added, and stirred at room temperature for 2 hours, then absorption at 550 nm was measured by using ELx 808 (BIO-TEK Instruments Inc.). As compared with stemphone C substance previously reported by the present inventor (ratio: 1.0), about 4-fold to 60-fold reduction of toxicity were confirmed.

Solubility in solvent = format: physicochemical

| SMILES | inhibitory zone in the presence of imipenem [1] | inhibitory zone, substance alone [1] | IC50 (Jurkat cells) | Solubility in methanol and chloroform (Solubility in solvent) | Solubility in water (Solubility in solvent) |
| --- | --- | --- | --- | --- | --- |
| C/C=C(\C)C(OC(C)=O)C(C)c1cc(O)c2c(c1O)OC1(C)CCC3OC(C(C)(C)O)CC(O)C3(C)C1C2O (stereo not drawn) [stemphone E substance] | 22 mm | not observed | 3.6 µg/mL (≈ 6.56 µM) | Soluble | insoluble |
| C/C=C(\C)C(OC(C)=O)C(C)C1=CC(=O)C2=C(OC3(C)CCC4OC(C(C)(C)O)CC(O)C4(C)C3=C2)C1=O (stereo not drawn) [stemphone E3 substance] | 20 mm | not observed | 2.6 µg/mL (≈ 4.92 µM) | Soluble | insoluble |
| C/C=C(\C)C(OC(C)=O)C(C)c1cc(O)c2c(c1O)OC1(C)CCC3OC(C(C)(C)O)CC(O)C3(C)C1=C2 (stereo not drawn) [stemphone E2 substance] | 22 mm | not observed | 4.4 µg/mL (≈ 8.29 µM) | Soluble | insoluble |
| C/C=C(\C)C(OC(C)=O)C(C)C1=CC(=O)C2=C(OC3(C)CCC4OC(C(C)(C)O)CC(O)C4(C)C3C2)C1=O (stereo not drawn) [stemphone D substance] | 25 mm | not observed | 1.8 µg/mL (≈ 3.39 µM) | Soluble | insoluble |
| C/C=C(\C)C(OC(C)=O)C(C)c1cc(OC)c2c(c1O)OC1(C)CCC3OC(C(C)(C)O)CC(O)C3(C)C1C2O (stereo not drawn) [stemphone E1 substance] | 15 mm | not observed | 26.2 µg/mL (≈ 46.6 µM) | Soluble | insoluble |
| C/C=C(\C)C(OC(C)=O)C(C)C1=CC(=O)C2=C(OC3(C)CCC4OC(C(C)(C)O)CC(O)C4(C)C3C2O)C1(O)CC(C)=O (stereo not drawn) [stemphone F substance] | 20 mm | not observed | 2.7 µg/mL (≈ 4.46 µM) | Soluble | insoluble |
